Measurements taken from patent publication US4277489A, “1(p-Chlorobenzoyl)-5-methoxy-2-methyl indole-3-acetic acid-3-oxo-isobenzofuranyl ester and pharmaceutical use thereof” (priority 1979, dated 1981).
Read-outs that look alike come from different tables or passages of the source.

What was measured:
Format in all cases: in vivo
[1] = Acute toxicity in the mouse, orally; conditions: in vivo, oral, read-out: Mortality at 10th day %
From the text: (§1) Firstly, the acute and subacute toxicity in the mouse orally has been tested.
(§2) Table 1- Acute toxicity, in the mouse, of 1-(p-chlorobenzoyl)5-methoxy-2-methylindole-3-acetic acid (Product A) and of 1-(p-chlorobenzoyl) -5-methoxy-2-methylindole-3-acet-3-oxo-1-isobenzofuranyl ester derivative (Product B)

mouse [2] = experiment: Acute toxicity in the mouse, orally; conditions: for Autopsical examination (gastroenteric hyperemia, ulcers): oral
From the text: as §1, §2

rat [3] = experiment: Ulcerogen activity in the fasted rat (autopsic examination of stomach, jejunum, large intestine and liver); conditions: 5 mg/kg
Method: In order to complete the picture of the possible ulcerogen activity, in the rat, of the product which is the object of this invention, a further research on the rat as against Product A, was performed.
Both the test molecules were suspended in 5% arabic gum and taken to solution.
The pharmacological treatment at the standard dose of 5 mg/kg was effected orally by means of a gastro-oesophageal probe.
The groups of animals were treated after 9, 24, 31, 50, 53, 56, 60 and 70 hours from beginning of the fasting. During the fasting period the animals received subcutaneously, 2 ml/die/animal of a 5% glucose solution in […]. The animals were sacrificed, by decapitation, at 48 and 72 hours from beginning of the fasting; there were drawn for autopsic examination, jejunum and large intestine, which were examined microscopically in order to detect the presence of any possible ulcerations.

[4] = system: paw-oedema, induced by means of sub-plantar injection of carrageenin; experiment: Anti-phlogistic activity: carrageenin-induced paw-oedema in the rat; conditions: oral
Method: In order to show the therapeutical activity of the derivative, which is an object of this invention, a research was carried out firstly on the anti-phlogistic activity as compared with the one of Product A.
The research was carried out in the rat by using the test of paw-oedema, induced by means of sub-plantar injection of carrageenin in a 1% solution. 0.1 ml of this solution was injected to each animal.
One hour before inoculation of the oedemigenous agent, the two test drugs were administered orally (gastric probe) to the different groups, according to the experimental scheme, and contemporaneously were measured, with a base value, the volume of the right untreated paw.
The treatment was effected on lots of five male animals of average weight of 240-270 g., according to the following experimental scheme:
1--three lots of control animals: 10 ml/kg mucilage of arabic gum;
2--one lot of animals treated with Product A--5 mg/kg;
3--one lot of animals treated with Product A--5.3 mg/kg;
4--one lot of animals treated with Product A--7 mg/kg;
5--one lot of animals treated with Product B--5 mg/kg;
6--one lot of animals treated with Product B--5.3 mg/kg;
7--one lot of animals treated with Product B--7 mg/kg.

rat [5] = experiment: Ulcerogen activity in the fasted rat (autopsic examination of stomach, jejunum, large intestine and liver); conditions: 5 mg/kg; remark: listed apart in the source
mouse [6] = experiment: Antalgic activity in the mouse: tail-compression test (Bianchi C. test); conditions: oral; for Time for which the algic stimulus is tolerated: two hours from administration, equal doses
Method: The time elapsing between the algic stimulus and the reaction of the mouse trying to get out of said stimulus was determined in seconds.
The measure was effected at the times 0, 1, 2, 3 hours from administation of the derivative object of the present invention (Product B) and from administration of the comparison compound (Product A).
1--two lots of control animals: 0.5 ml/animal of mucilage of 5% arabic gum;
2--one lot treated with Product A--4 mg/kg;
3--one lot treated with Product A--7 mg/kg;
4--one lot treated with Product B--4 mg/kg;
5--one lot treated with Product B--7 mg/kg.

[7] = oral, sacrificed at 72 hours from beginning of fasting (8 administrations)
[8] = oral, sacrificed at 48 hours from beginning of fasting (3 administrations)

| SMILES | mortality at 240 h ([1]; dose 10 mg/kg) [%] | mortality at 240 h ([1]; dose 18 mg/kg) [%] | mortality at 240 h ([1]; dose 20 mg/kg) [%] | mortality at 240 h ([1]; dose 25 mg/kg) [%] | mortality at 240 h ([1]; dose 28 mg/kg) [%] | Toxic component compared with the free acid (mouse [2]; in vivo) | Autopsical examination (gastroenteric hyperemia, ulcers) (mouse [2]) | Caecum, autopsic examination (rat [3]; in vivo, po) | Liver, macroscopic and microscopic examination (rat [3]; in vivo, po) | Jejunum, autopsic examination (rat [3]; [7]) | Anti-phlogistic effect (onset and extent) compared with the comparison product [4] | Anti-phlogistic activity compared with Product A ([4]; doses being equal (5, 5.3, 7 mg/kg), within the first three hours) | Stomach, autopsic examination (rat [5]; in vivo, po) | Antalgic activity compared with the comparison product (mouse [6]; mouse, 4 and 7 mg/kg) | Time for which the algic stimulus is tolerated (mouse [6]) [s] | Large intestine (caecum), autopsic examination (rat [3]; [8]) | Small intestine (jejunum), autopsic examination (rat [3]; [8]) | Caecum, autopsic examination (rat [3]; [7]) | Stomach, autopsic examination (rat [5]; [8]) | Stomach, autopsic examination (rat [5]; [7]) |
| --- | --- | --- | --- | --- | --- | --- | --- | --- | --- | --- | --- | --- | --- | --- | --- | --- | --- | --- | --- | --- |
| COc1ccc2c(c1)c(CC(=O)OC1OC(=O)c3ccccc31)c(C)n2C(=O)c1ccc(Cl)cc1 (stereo not shown) [Product B, 1-(p-chlorobenzoyl)-5-methoxy-2-methyl indole-3-acetic acid 3-oxo-1-isobenzofuranyl ester] | 20 | 40 | 50 | 60 | 70 | lesser than the one of the free acid | only a slight gastroenteric hyperemia, but no ulcer | None at caecum level | nothing pathological resulted | Jejunum slightly hyperemic | remarkably more precocious, as well as more marked | signficantly more active, doses being equal, than the comparison product (Product A) within the first three hours | No considerable alteration at stomach level | quite superior | 45 | – | – | – | – | – |
| COc1ccc2c(c1)c(CC(=O)O)c(C)n2C(=O)c1ccc(Cl)cc1 [Product A, 1-(p-chlorobenzoyl)-5-methoxy-2-methylindole-3-acetic acid, reference compound] | 40 | 70 | 90 | 100 | 100 | – | very marked gastroenteric hyperemia with presence of numerous ulcers | – | – | Jejunum diffusely hyperemic | – | – | – | – | ≤ 30 | highly hyperemic | slightly hyperemic, with presence of microulcers | Caecum with hemorrhagic microareas | Stomach diffusely hyperemic | Stomach highly hyperemic with presence of evident macroulcers |
